# According to US20230218663A1, “COMPOSITIONS AND METHODS FOR TREATING A SARS-COV-2 INFECTION” (priority 2020, published 2023):
# Values joined by “and” are separate entries in the source; they are usually repeats but may differ in a detail not shown here. Identical values can stand only once. Like-named read-outs stand apart in the source and are kept apart here.
# Legend:
# [1] = cited from earlier work
# [2] = test system: VeroE6 cells; assay: Cell viability assay (CellTiterGlo), VeroE6; format: cell-based, African green monkey; settings: 48 hrs incubation; concentration based on metal content; read-out: CC50 VeroE6
# Experimental: (§1) The CellTiterGlo® luminescent assay (Promega Corporation, Madison, Wis., USA) was performed to detect the cytotoxicity of the selected compounds as previously described^39. Briefly, VeroE6 cells (4×10^4 cells per well) and Caco2 cells (4×10^4 cells per well) were incubated with different concentrations of the individual compound in 96-well plates for 48 hrs, followed by the addition of the substrate and measurement of luminance 10 min later. Ridaura and Au(PEt3)Cl were dissolved in DMSO, and the final percentage of DMSO was kept at 1% in culture medium.
# [3] = test system: SARS-CoV-2; settings: Caco-2
# [4] = test system: Caco2 cells; assay: Cell viability assay (CellTiterGlo), Caco2; format: cell-based, human; settings: 48 hrs incubation; concentration based on metal content; read-out: CC50 Caco2
# Experimental: as §1
# [5] = test system: SARS-CoV-2; format: cell-based
# [6] = test system: SARS-CoV-2; format: cell-based; settings: read-out: EC50 VeroE6
# [7] = test system: SARS-CoV-2; assay: Golden Syrian hamster model, oral treatment (NAC studies); format: in vivo; settings: hamster, in vivo
# [8] = test system: Caco-2 cell monolayer
# [9] = test system: SARS-CoV-2; format: cell-based; remark: listed apart in the source
# [10] = Chemical stability of bismuth drugs at different pH
# [11] = test system: SARS-CoV-2; assay: Viral load reduction assay in VeroE6 cells; format: cell-based
# Experimental: Viral load reduction assay was performed on VeroE6 and Caco2 cells, as described previously with modifications^41. Supernatant samples from the infected cells (0.1 MOI) were harvested at 48 hours post-infection (hpi) for qRT-PCR analysis of virus replication. Briefly, 100 μL of viral supernatant were lyzed with 400 μL of AVL buffer and then extracted for total RNA with the QIAamp viral RNA mini kit (Qiagen, Hilden, Germany). Real-time one-step qRT-PCR was used for quantitation of SARS-CoV-2 viral load using the QuantiNova Probe RT-PCR kit (Qiagen) with a LightCycler 480 Real-Time PCR System (Roche) as previously described^15. Each […] mixture contained 10 μL of 2×QuantiNova Probe RT-PCR Master Mix, 1.2 μL of RNase-free water, 0.2 μL of QuantiNova Probe RT-Mix, 1.6 μL each of 10 μM forward and reverse primer, 0.4 μL of 10 μM probe, and 5 μL of extracted RNA as the template. Reactions were incubated at 45° C. for 10 min for reverse transcription, 95° C. for 5 min for denaturation, followed by 45 cycles of 95° C. for 5 s and 55° C. for 30 s. Signal detection and measurement were taken in each cycle after the annealing step. The cycling profile ended with a cooling step at 40° C. for 30 s. The primers and probe sequences are against the RNA-dependent RNA polymerase/Helicase (RdRP/Hel) gene region of SARS-Cov-2 previously described^42.
# Cell culture supernatants were collected at 48 hour-post-infection (hpi) for viral RNA extraction and quantitative reverse transcription-polymerase chain reaction (qRT-PCR) as previously described with modifications(13, 14). The primers and probe sequences were against the RNA-dependent RNA polymerase/Helicase (RdRP/Hel) gene region of SARS-CoV-2: forward primer: 5′-[…]-3′ (SEQ ID NO:6); reverse primer: 5′-[…]-3′(SEQ ID NO:7); specific probe: 5′-[…]-IABkFQ-3′(SEQ ID NO:8). The viral load reduction assay experiments were performed in triplicate and repeated twice for confirmation.
# [12] = In vivo pharmacokinetics and biodistribution in SD rats; set-up: species or system Sprague Dawley rats
# Experimental: For the measurement of detailed pharmacokinetics profiles of the optimal NAC combination with CBS identified from the above mice study, rats received a minor surgery of cannulation one day prior to experiment, with a polythene tube (i.d.0.4 mm×o.d. 0.8 mm, Harvard Apparatus, USA) in the left jugular vein, followed by an overnight recovery and fasting. Two group of rats (n=5 per group) were orally administrated with 1-mL aliquot of CBS (150 mg/kg) or CBS (150 mg/kg)+10NAC (610 mg/kg). About 200 μL of rat blood were collected via the jugular vein cannula into a heparinized centrifuge tube at 0.17, 0.33, 0.5, 1, 2, 4, 6, 8, 12, 24-hour post drug administration for respective group. Rats were allowed for free access to food 12 h after drug administrations. All the rats were sacrificed 24-hour post dosing followed by cardiac perfusion with 200-mL saline to collect major organs including spleen, liver, lung, kidney and brain for further analyses. For the digestion of tissues, a modified protocol from US EPA 3050B (USEPA, 1996) was used. Briefly, approximate 0.2˜0.3 g of the respective rat organ samples was placed in 15 ml polypropylene tubes and digested with 1 mL of 69% HNO3 at 65° C. for 16 h, while 100 μL of rat blood was digested with equal volume of 69% HNO3 at 65° C. for 16 h. After being cooled down to room temperature, the samples were diluted to 1% nitric acid to the final volume of 3 mL for further use. To eliminate matrix effect, blood and organs were also collected from untreated rats and digested under identical condition serving as blank control. Standard solutions were prepared by diluting multielement calibration standard of bismuth in the respective blank control of organ and blood, respectively. The bismuth content in each organ or blood sample was then measured by ICP-MS and calculated according to the standard curve in respective blank control. Pharmacokinetic parameters including the peak concentration (Cmax), the area under the concentration-time curve (AUC), the time reaching Cmax (Tmax) were determined through noncompartmental analysis with Phoenix WinNonlin version 6.4 (Pharsight Corporation, Mountain View, Calif., USA).
# [13] = oral, CBS 150 mg/kg, NAC 610 mg/kg, bismuth
# [14] = oral, CBS 150 mg/kg, NAC 610 mg/kg, bismuth, listed as CBS
substance,measurement,setting,value
Colloidal Bismuth Subcitrate [De-Nol],optimum pH for precipitation,[1]; gastric juice,3.5
same,solubility,[1]; water,soluble in water
same,CC50,[2],3.254 ± 0.021 mM
same,maximal viral load reduction in Caco2 cell culture supernatant,[3],~4 logs
same,maximal viral load reduction in the Caco2 cell lysate,[3],~3 logs
same,CC50,[4],3.74 ± 0.125 mM
same,cumulative permeated bismuth,"PBS iso-pH 1.2, in the presence of 10 mol eq. NAC",24.91 ng/cm2
same,cumulative permeated bismuth,"PBS iso-pH 1.2, without NAC",16.95 ng/cm2
same,viral NP antigen-positive cells,[5],37.25%
same,EC50,[6],4.6 ± 0.4 µM
same,adverse clinical signs and symptoms,[7],mildly mitigated
same,pulmonary viral load compared with vehicle group,[7],No statistically significant difference
same,change in lung IL-6 level versus vehicle group,[7]; po,lowered but statistically non-significant change
same,bismuth intestinal permeation within 60 min,[8],moderately elevated
same,"effect on virus replication, drug maintained after virus entry (post-entry)",[9],functioned at post-entry stages
same,bismuth found in the supernatant,"[10]; pH 1.2, after 1 hour, without NAC",less than 10%
same,bismuth remaining in the supernatant,"[10]; pH 1.2, in the presence of 3 mol eq. NAC",approximately 100%
same,bismuth remaining in the supernatant,"[10]; pH 1.2, in the presence of 10 mol eq. NAC",approximately 100%
same,hydrolysis at pH 9.2 in the presence of NAC,[10]; pH 9.2,prevent hydrolysis
same,maximal viral load reduction in VeroE6 cell culture supernatant,[11],~4 logs
same,maximal viral load reduction in the VeroE6 cell lysate,[11],~2 logs
same,bismuth accumulation in kidney,[12]; 24 hours after oral dose,6839.76 ng per tissue
same,bismuth accumulation in lung,[12]; 24 hours after oral dose,552.15 ng per tissue
same,first peak value of blood bismuth level,"[12]; at around 0.5 h, single oral dose CBS 150 mg/kg",277.69 µg/L
same,AUC0→24 h (±SD),[12]; [13],2324.20 (±759.76) h · μg/L
same,Cmax (±SD),[12]; [13],447.06 µg/L
same,AUC0→12 h (±SD),[12]; [14],1316 h · μg/L and 1316.94 (±474.00) h · μg/L
same,Tmax (±SD),[12]; [14],4 h and 2.53(±2.01) h
